In ChEMBL document CHEMBL1131309, “Isoindol-1-one analogues of 4-(2'-methoxyphenyl)-1-[2'-[N-(2"-pyridyl)-p-iodobenzamido]ethyl]pipera zine (p-MPPI) as 5-HT1A receptor ligands” (J Med Chem, 1998):

Biological target: T1, 5-hydroxytryptamine receptor 1A (Rattus norvegicus, UniProt P19327)
T1 sequence (P19327 whole entry): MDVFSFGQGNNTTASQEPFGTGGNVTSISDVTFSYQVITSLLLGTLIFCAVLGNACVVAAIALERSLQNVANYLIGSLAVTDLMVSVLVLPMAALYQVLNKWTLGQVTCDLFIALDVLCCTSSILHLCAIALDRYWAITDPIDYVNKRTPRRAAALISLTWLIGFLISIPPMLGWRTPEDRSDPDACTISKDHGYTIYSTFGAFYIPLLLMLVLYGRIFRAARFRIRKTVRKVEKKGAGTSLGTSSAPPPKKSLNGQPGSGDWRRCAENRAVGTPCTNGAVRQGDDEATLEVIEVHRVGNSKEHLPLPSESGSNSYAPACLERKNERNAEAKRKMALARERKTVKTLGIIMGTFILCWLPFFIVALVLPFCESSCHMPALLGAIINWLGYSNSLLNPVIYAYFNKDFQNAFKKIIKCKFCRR
Description: In vitro binding affinity for 5-hydroxytryptamine 1A receptor in rat hippocampal membranes by [125I]-labeled agonist displacement.

| Structure (SMILES) | Ki [nM] |
| --- | --- |
| COc1ccccc1N1CCN(CCN2C(=O)c3cc([N+](=O)[O-])ccc3C2c2ccccc2)CC1 (stereo unspecified) | 0.045 |
| COc1ccccc1N1CCN(CCN2C(=O)c3ccccc3C2c2ccccn2)CC1 (stereo unspecified) | 6.5 |
| COc1ccccc1N1CCN(CCN2C(=O)c3cc(N)ccc3C2(O)c2ccccc2)CC1 (stereo unspecified) | 1.85 |
| COc1ccccc1N1CCN(CCN2C(=O)CCC2c2ccc(Br)cc2)CC1 (stereo unspecified) | 1.09 |
| COc1ccc([N+](=O)[O-])cc1N1CCN(CCN2C(=O)c3cc(I)ccc3C2c2ccccc2)CC1 (stereo unspecified) | 51.7 |
| COc1ccccc1N1CCN(CCN2C(=O)c3ccccc3C2c2ccccc2)CC1 (stereo unspecified) | 0.5 |
